Measured values taken from the supplement of paper PMC10331698.
± gives the standard deviation of the averaged measurements.

Columns and labels:
Experiment in all cases: LOEC (log10 uM (lowest observed effect concentration))
[1] = compound: FC(F)(I)C(F)(F)C(F)(F)C(F)(F)C(F)(F)C(F)(F)I [1,6-Diiodoperfluorohexane]
Description: (§1)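 BioMAP Diversity Plus panel in human primary cell co-cultures, 4 concentrations in duplicate blinded samples. Responses are log10 fold change versus DMSO control, processed with tcpl v2.1.0. A hit is called when responses at any concentration exceed the cutoff (the larger of 3*bmad or log10(1.2)); the lowest observed effect concentration (modl_ga, log10 uM) is reported for hits.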

[2] = compound: O=S(=O)(OCC(F)(F)F)C(F)(F)C(F)(F)C(F)(F)C(F)(F)F [2,2,2-Trifluoroethyl perfluorobutanesulfonate]
Description: as §1

[3] = compound: OCC(F)(F)C(F)(F)C(F)(F)C(F)(F)C(F)(F)C(F)(F)C(F)(F)C(F)(F)CO [1H,1H,10H,10H-Perfluorodecane-1,10-diol]
Description: as §1

[4] = compound: OCCCC(F)(F)C(F)(F)C(F)(F)C(F)(F)C(F)(F)C(F)(F)C(F)(F)C(F)(F)F [3-(Perfluorooctyl)propanol]
Description: as §1

[5] = compound: OCCC(F)(F)C(F)(F)C(F)(F)C(F)(F)C(F)(F)C(F)(F)C(F)(F)C(F)(F)F [8:2 Fluorotelomer alcohol]
Description: as §1

[6] = compound: O=C(CC(=O)C(F)(F)C(F)(F)C(F)(F)F)c1cccs1 [(Perfluorobutyryl)-2-thenoylmethane]
Description: as §1

[7] = compound: OCC(F)(F)C(F)(F)C(F)(F)C(F)(F)C(F)(F)C(F)(F)C(F)(F)C(F)(F)C(F)(F)C(F)(F)C(F)(F)F [11:1 Fluorotelomer alcohol]
Description: as §1

Perfluoropinacol = compound: OC(C(F)(F)F)(C(F)(F)F)C(O)(C(F)(F)F)C(F)(F)F [Perfluoropinacol]
Description: as §1

[8] = compound: C=CC(=O)OCC(F)(F)C(F)(F)C(F)(F)C(F)(F)COC(=O)C=C [1H,1H,6H,6H-Perfluorohexane-1,6-diol diacrylate]
Description: as §1

[9] = compound: C=CC(=O)OCC(F)(F)C(F)(F)C(F)(F)C(F)(F)C(F)(F)C(F)(F)C(F)(F)C(F)F [1H,1H,9H-Perfluorononyl acrylate]
Description: as §1

[10] = compound: O=C(O)C(F)(F)C(F)(F)C(F)(F)C(F)(F)C(F)(F)C(F)(F)C(F)(F)F [Ammonium perfluorooctanoate]
Description: as §1

Perfluorooctanoic acid = compound: O=C(O)C(F)(F)C(F)(F)C(F)(F)C(F)(F)C(F)(F)C(F)(F)C(F)(F)F [Perfluorooctanoic acid]
Description: as §1

[11] = compound: OCC(F)(F)C(F)(F)C(F)(F)C(F)(F)C(F)(F)C(F)(F)F [6:1 Fluorotelomer alcohol]
Description: as §1

[12] = compound: FC(F)(F)C(F)(F)C(F)(F)C(F)(F)CCI [1H,1H,2H,2H-Perfluorohexyl iodide]
Description: as §1

Row | Test System | LOEC (log10 uM) [1] | LOEC (log10 uM) [2] | LOEC (log10 uM) [3] | LOEC (log10 uM) [4] | LOEC (log10 uM) [5] | LOEC (log10 uM) [6] | LOEC (log10 uM) [7] | LOEC (log10 uM) (Perfluoropinacol) | LOEC (log10 uM) [8] | LOEC (log10 uM) [9] | LOEC (log10 uM) [10] | LOEC (log10 uM) (Perfluorooctanoic acid) | LOEC (log10 uM) [11] | LOEC (log10 uM) [12]
1 | IMphg MIP1a down | 1.54 ± 0.34 | 1.54 ± 0.34 | 1.78 | 1.54 ± 0.34 |  |  |  |  |  |  |  |  |  | 
2 | BE3C MMP9 down | 1.78 |  | 1.78 | 1.78 | 1.3 | 1.3 | -0.222 | 1.78 | 1.54 ± 0.34 |  |  |  |  | 
3 | MyoF ACTA1 down | 0.573 ± 0.39 |  | 1.78 | 1.07 ± 0.32 | 1.3 |  |  | 1.3 | 0.845 | 1.78 |  |  |  | 
4 | IMphg MCP1 down | 1.3 |  | 1.78 | 1.3 | 1.78 | 1.3 |  | 1.3 | 1.31 ± 0.66 |  |  |  |  | 
5 | BE3C IP10 down | 1.54 ± 0.34 |  | 1.3 | 1.3 | 1.07 ± 0.32 | 1.3 |  | 1.3 | 1.78 |  | 1.78 | 1.78 |  | 
6 | BE3C IL8 down | 1.78 |  | 1.54 ± 0.34 | 1.3 | 1.3 | 1.78 | -0.222 | 1.3 | 1.3 |  |  |  |  | 
7 | BT xIL2 down | 1.54 ± 0.34 |  | 1.78 | 1.78 | 1.3 | 1.78 |  | 1.78 | 0.845 |  |  |  |  | 
8 | MyoF CollagenIII down | 0.845 |  | 1.78 | 1.3 | 1.3 | 1.3 |  | 1.3 | 1.3 | 1.78 |  |  |  | 
9 | BE3C MMP1 up |  |  |  |  |  |  |  |  | 1.3 |  | 1.3 | 1.78 |  | 
10 | BE3C PAI1 down | 1.54 ± 0.34 |  | 1.78 | 1.78 | 1.3 | 0.301 |  | 1.07 ± 0.32 |  |  |  |  |  | 
11 | BT xIL17A down | 1.78 |  | 1.78 | 1.3 | 1.78 | 1.3 |  | 1.3 | 0.845 | 1.54 ± 0.34 |  |  |  | 
12 | 4H VCAM1 down | 1.3 |  | 1.78 | 1.54 ± 0.34 | 1.54 ± 0.34 | 1.3 |  | 1.3 | 1.3 |  |  |  |  | 
13 | IMphg CD69 down | 1.78 |  | 1.78 | 1.78 | 1.54 ± 0.34 | 0.845 |  | 1.07 ± 0.32 | 1.78 |  |  |  |  | 
14 | LPS IL8 up |  |  |  |  |  |  |  |  |  |  |  | 1.78 |  | 
15 | hDFCGF CollagenI up |  |  |  |  |  |  | -1.22 |  |  |  |  |  |  | 
16 | CASM3C Proliferation down | 0.845 |  | 1.78 | 1.3 | 1.3 | 0.801 ± 0.71 |  | 1.3 | 1.3 |  |  |  | 1.78 | 
17 | IMphg CD40 down | 1.3 |  | 1.54 ± 0.34 | 1.3 | 1.78 | 1.3 | 0.301 | 1.3 | 1.3 |  |  |  |  | 

Row | Test System | LOEC (log10 uM) [1] | LOEC (log10 uM) [2] | LOEC (log10 uM) [3] | LOEC (log10 uM) [4] | LOEC (log10 uM) [5] | LOEC (log10 uM) [6] | LOEC (log10 uM) [7] | LOEC (log10 uM) (Perfluoropinacol) | LOEC (log10 uM) [8] | LOEC (log10 uM) [9] | LOEC (log10 uM) [10] | LOEC (log10 uM) (Perfluorooctanoic acid) | LOEC (log10 uM) [11] | LOEC (log10 uM) [12]
18 | LPS IL1a down | 1.3 | 1.54 ± 0.34 |  | 0.845 | 1.3 |  | -0.222 |  | 1.3 |  |  |  |  | 
19 | hDFCGF IP10 down | 0.845 | 1.78 | 1.78 | 0.845 | 1.3 | 1.3 |  | 1.3 | 0.301 | 1.78 |  |  | 1.78 | 
20 | MyoF CollagenIV up |  |  |  |  |  |  |  | 1.3 |  |  | 1.78 | 1.78 |  | 
21 | MyoF MMP1 up |  |  |  |  |  |  |  | 1.78 |  | 1.78 |  |  |  | 
22 | 4H Pselectin down | 1.3 |  |  | 1.3 | 1.3 | 1.3 |  | 1.3 | 1.07 ± 0.32 |  |  |  | 1.78 | 
23 | SAg PBMCCytotoxicity down | 1.3 |  | 1.78 | 1.3 | 1.3 | 1.78 | -1.22 |  | 1.07 ± 0.32 | 1.54 ± 0.34 |  |  |  | 
24 | 3C IL8 up |  |  |  |  |  |  |  |  |  |  |  | 1.78 |  | 
25 | IMphg ESelectin up |  |  |  |  |  |  | 0.0396 ± 0.37 |  |  |  |  |  |  | 
26 | 4H Eotaxin3 down | 1.3 |  |  | 1.3 | 1.54 ± 0.34 | 1.3 |  | 1.3 | 1.3 |  |  |  |  | 1.78
27 | BT xIL17F up |  |  |  |  |  |  | -1.22 |  |  |  |  |  |  | 
28 | BE3C uPAR down | 1.78 |  | 1.78 | 1.78 | 1.54 ± 0.34 | 1.78 |  | 1.3 | 1.78 |  |  |  |  | 
29 | hDFCGF VCAM1 down | 0.845 |  | 1.54 ± 0.34 | 0.845 | 1.3 |  |  | 1.3 | 0.301 | 1.3 |  |  | 1.78 | 1.78
30 | BT xIL17F down | 1.54 ± 0.34 |  | 1.78 | 1.3 | 1.78 | 1.3 |  | 1.54 ± 0.34 | 0.573 ± 0.39 | 1.3 |  |  | 1.78 | 
31 | hDFCGF CollagenIII down | 0.845 |  | 1.78 | 1.3 | 1.3 | 1.3 |  | 1.78 |  |  | 1.78 |  | 1.31 ± 0.66 | 
32 | hDFCGF TIMP2 down |  |  |  | 1.3 | 0.801 ± 0.71 | 1.07 ± 0.32 |  | 1.3 | 1.07 ± 0.32 |  |  |  |  | 1.78
33 | hDFCGF Proliferation down | 0.301 |  | 1.54 ± 0.34 | 0.845 | 0.845 | 0.845 |  | 0.845 | 0.301 | 1.3 |  |  | 1.78 | 
